# In patent publication US6511804B1, “Selective assay for determining the identity of live microorganisms in a mixed culture” (priority 1998, dated 2003):
# Where two headings read alike, the source gives them in different places.
# Key:
# [1] = tested on: E. coli (C600); assay: Ampicillin sensitivity of E. coli C600 as stated; format: cell-based
# [2] = tested on: E. coli (C600); assay: Mixed culture P. mirabilis:E. coli 50:1 with ampicillin, BrdU immunocapture and FlaA PCR; format: cell-based; settings: 50:1 P. mirabilis:E. coli; L-broth with 5, 10, or 20 μg/ml ampicillin
# [3] = tested on: P. mirabilis; assay: Ampicillin resistance of the P. mirabilis strain; format: cell-based, Proteus mirabilis; settings: P. mirabilis strain used in these studies
# [4] = tested on: E. coli; format: cell-based
# [5] = tested on: E. coli strain W3110; assay: Growth curves of E. coli strain W3110 in L-broth with antibiotic or BrdU; format: cell-based; settings: FIG. 3
# [6] = tested on: H. actinomycetemcomitans (ATCC No. 43718); assay: BrdU immunocapture/PCR antibiotic sensitivity of H. actinomycetemcomitans; format: cell-based, Haemophilus actinomycetemcomitans; settings: anaerobic culture; FIG. 8
# Procedure: H. actinomycetemcomitans is reported to be a human pathogen, and has been implicated in juvenile periodontitis. In these studies, a culture of H. actinomycetemcomitans (ATCC No. 43718; previously known as Actinobacillus actinomycetemcomitans) was grown to saturation under anaerobic conditions as in part A, above, except that hemin was not added to the medium. The culture was diluted 1:10 into fresh media, and grown for a further 4 hours under anaerobic conditions. At this point, the culture was divided into aliquots and subjected to the same testing protocol as was employed in part A of this Example, except that after the BrdU was added, the 2 hour incubation was followed for convenience by overnight storage under refrigeration at 4° C. The next day, the aliquoted cultures were lysed by the NaOH lysis protocol described above, PCR was performed, and the capture probe set forth in Table 1 for this organism was employed.
# [7] = tested on: T. denticola (ATCC number 35405); assay: BrdU immunocapture/PCR antibiotic sensitivity of Treponema denticola; format: cell-based; settings: FIG. 9; for BrdU incorporation / immunocapture PCR signal: T. denticola; for sensitivity or resistance of T. denticola: anaerobic culture, no negative immunocapture control
# Procedure: Treponema denticola was also studied using the invention. In these studies, a culture of T. denticola (ATCC number 35405) was inoculated into fresh media and grown anaerobically for 1 day in NOS media (ATCC media formulation 1494). The cultures were grown as in Part A of this Example, except that the cultures were incubated for about 8 hours prior to the addition of BrdU, they were incubated overnight after the addition of BrdU, and the samples were analyzed the next day. The PCR was conducted in the manner described above, except that a GroEL primer set was not available and a primer set for the FlgE gene (endoflagellar subunit protein) referred to FlgE001 and FlgE006 was substituted. These primers were expected to give rise to a 542 bp PCR fragment.
# [8] = tested on: Porphyromonas gingivalis (ATCC No. 33277); assay: BrdU immunocapture/PCR antibiotic sensitivity of Porphyromonas gingivalis; settings: anaerobic culture; 2 hours antibiotic then 2 hours BrdU; FIG. 7
# [9] = tested on: E. coli strain NK5830; assay: BrdU immunocapture/PCR antibiotic sensitivity assay, strain NK5830; settings: antibiotic 100 μg/ml, FIG. 4
# [10] = tested on: E. coli strain NK5830; format: cell-based; settings: antibiotic at final concentration 100 μg/ml, FIG. 3
compound,measurement,setting,value
CC1(C)S[C@@H]2[C@H](NC(=O)[C@H](N)c3ccccc3)C(=O)N2[C@H]1C(=O)O [Ampicillin],sensitivity to ampicillin,[1],extremely sensitive
same,PCR products obtained (E. coli 1 kb / P. mirabilis 800 bp),[2],only the P. mirabilis PCR product
same,ampicillin concentration to which the strain is resistant,[3],over 400 μg/ml
same,detectable BrdU compared to the control,[4]; E. coli strain W3110,lack of detectable BrdU compared to the control
same,effect on cells (lysis),[4]; E. coli strain W3110,lysed
"O=c1[nH]c(=O)n([C@H]2C[C@H](O)[C@@H](CO)O2)cc1Br [BrdU, 5-bromo-2′-deoxyuridine]",growth profile after addition of BrdU,[5]; BrdU added at 2.5 hours,did not change the growth profile
O=C(N[C@H](CO)[C@H](O)c1ccc([N+](=O)[O-])cc1)C(Cl)Cl [Chloramphenicol],effect on the growth of E. coli,[4],significantly reduced growth
[H]/N=C(/N)N[C@H]1[C@H](O)[C@@H](O)[C@H](O[C@@H]2O[C@@H](C)[C@](O)(C=O)[C@H]2O[C@@H]2O[C@@H](CO)[C@H](O)[C@@H](O)[C@@H]2NC)[C@@H](N/C(N)=N\[H])[C@@H]1O [Streptomycin],effect on the growth of E. coli,[4],little or no effect
Cc1ncc([N+](=O)[O-])n1CCO [metronidazole],sensitivity or resistance of H. actinomycetemcomitans,[6],resistance
same,BrdU incorporation / immunocapture PCR signal,[7],level of BrdU incorporation is at background
same,sensitivity or resistance of T. denticola,[7],sensitive
same,sensitivity or resistance of P. gingivalis,[8],sensitive
CCn1cc(C(=O)O)c(=O)c2ccc(C)nc21 [nalidixic acid],sensitivity or resistance of H. actinomycetemcomitans,[6],sensitivity
same,BrdU incorporation / immunocapture PCR signal,[7],equivalent to the positive control
same,sensitivity or resistance of T. denticola,[7],resistant
same,"immunocapture/PCR signal (BrdU-labeled DNA, gel)",[9],strong positive signal
same,sensitivity or resistance of P. gingivalis,[8],resistant
same,growth (growth curve),[5]; antibiotic at final concentration 100 μg/ml,inhibited growth
same,growth (growth curve),[10],did not cause any growth inhibition
same,effect on the growth of E. coli,[4],greatest effect
gentamycin,effect on the growth of E. coli,[4]; compared to controls grown in the absence of the antibiotic,greatest effect
